{"source": "patent US8846719B2", "about": "“Isoxazolo-pyridine derivatives” (Roche Palo Alto LLC, priority 2007, dated 2014)", "molecular_target": "human GABA A receptor α5β3γ2 (Homo sapiens (Human), UniProt P18507+P31644)", "assay": "[3H]flumazenil competition binding assay, human GABA A α5β3γ2 receptors expressed in HEK293 cells", "settings": "human receptor; displacement of [3H]flumazenil (0.5 nM); means of two determinations; read-out: hKi GABAAa5", "procedure": "The affinity of compounds at GABA A receptor subtypes was measured by competition for [3H]flumazenil (85 Ci/mmol; Roche) binding to HEK293 cells expressing rat (stably transfected) or human (transiently transfected) receptors of composition α1β3γ2, α2β3γ2, α3β3γ2 and α5β3γ2.\nCell pellets were suspended in Krebs-tris buffer (4.8 mM KCl, 1.2 mM CaCl2, 1.2 mM MgCl2, 120 mM NaCl, 15 mM Tris; pH 7.5; binding assay buffer), homogenized by polytron for ca. 20 sec on ice and centrifuged for 60 min at 4° C. (50000 g; Sorvall, rotor: SM24=20000 rpm). The cell pellets were resuspended in Krebs-tris buffer and homogenized by polytron for ca. 15 sec on ice. Protein was measured (Bradford method, Bio-Rad) and aliquots of 1 mL were prepared and stored at −80° C.\nAssays were incubated to equilibrium for 1 hour at 4° C. and harvested onto GF/C uni-filters (Packard) by filtration using a Packard harvester and washing with ice-cold wash buffer (50 mM Tris; pH 7.5). After drying, filter-retained radioactivity was detected by liquid scintillation counting. Ki values were calculated using Excel-Fit (Microsoft) and are the means of two determinations.", "note": "pKi: −log10 of the molar value.", "data": [{"smiles": "Cc1onc(-c2ccccc2)c1COc1ccc(C(=O)NC[C@@H](C)O)cn1", "note": "(racemic) [Example 14, (R,S)—N-(2-Hydroxy-propyl)-6-(5-methyl-3-phenyl-isoxazol-4-ylmethoxy)-nicotinamide]", "values": [{"measurement": "pKi", "result": 8.60}]}, {"smiles": "Cc1onc(-c2ccccc2)c1COc1ccc(C(=O)N[C@@H]2CCOC(C)(C)C2)cn1", "note": "(racemic) [Example 32, (R,S)—N-(2,2-Dimethyl-tetrahydro-pyran-4-yl)-6-(5-methyl-3-phenyl-isoxazol-4-ylmethoxy)-nicotinamide]", "values": [{"measurement": "pKi", "result": 8.10}]}, {"smiles": "Cc1onc(-c2ccccc2)c1COc1ccc(C(=O)N[C@H]2CCCC[C@H]2O)cn1", "note": "(racemic) [Example 199, N-((1S,2R) and (1R,2S)-2-Hydroxy-cyclohexyl)-6-(5-methyl-3-phenyl-isoxazol-4-ylmethoxy)-nicotinamide]", "values": [{"measurement": "pKi", "result": 8.55}]}, {"smiles": "Cc1onc(-c2ccccc2)c1COc1ccc(C(=O)N[C@@H]2CCCC[C@@H]2O)cn1", "note": "(single isomer, unassigned) [Example 203, N-((1R,2S)-2-Hydroxy-cyclohexyl)-6-(5-methyl-3-phenyl-isoxazol-4-ylmethoxy)-nicotinamide or N-((1S,2R)-2-Hydroxy-cyclohexyl)-6-(5-methyl-3-phenyl-isoxazol-4-ylmethoxy)-nicotinamide]", "values": [{"measurement": "pKi", "result": 8.32}]}, {"smiles": "Cc1onc(-c2ccccc2)c1COc1ccc(C(=O)N[C@H]2CCCC[C@H]2O)cn1", "note": "(single isomer, unassigned) [Example 204, N-((1S,2R)-2-Hydroxy-cyclohexyl)-6-(5-methyl-3-phenyl-isoxazol-4-ylmethoxy)-nicotinamide or N-((1R,2S)-2-Hydroxy-cyclohexyl)-6-(5-methyl-3-phenyl-isoxazol-4-ylmethoxy)-nicotinamide]", "values": [{"measurement": "pKi", "result": 8.36}]}, {"smiles": "Cc1onc(-c2ccccc2)c1COc1ccc(C(=O)N[C@@H]2CCC[C@@H]2O)cn1", "note": "(single isomer, unassigned) [Example 210, N-((1R,2S)-2-Hydroxy-cyclopentyl)-6-(5-methyl-3-phenyl-isoxazol-4-ylmethoxy)-nicotinamide or N-((1S,2R)-2-hydroxy-cyclopentyl)-6-(5-methyl-3-phenyl-isoxazol-4-ylmethoxy)-nicotinamide]", "values": [{"measurement": "pKi", "result": 8.30}]}, {"smiles": "Cc1onc(-c2ccccc2)c1COc1ccc(C(=O)N[C@H]2CCC[C@H]2O)cn1", "note": "(single isomer, unassigned) [Example 211, N-((1S,2R)-2-Hydroxy-cyclopentyl)-6-(5-methyl-3-phenyl-isoxazol-4-ylmethoxy)-nicotinamide or N-((1R,2S)-2-hydroxy-cyclopentyl)-6-(5-methyl-3-phenyl-isoxazol-4-ylmethoxy)-nicotinamide]", "values": [{"measurement": "pKi", "result": 8.57}]}, {"smiles": "Cc1onc(-c2ccccc2)c1COc1ccc(C(=O)N[C@H]2CCC[C@@H]2O)cn1", "note": "(single isomer, unassigned) [Example 212, N-((1S,2S)-2-Hydroxy-cyclopentyl)-6-(5-methyl-3-phenyl-isoxazol-4-ylmethoxy)-nicotinamide or N-((1R,2R)-2-hydroxy-cyclopentyl)-6-(5-methyl-3-phenyl-isoxazol-4-ylmethoxy)-nicotinamide]", "values": [{"measurement": "pKi", "result": 8.70}]}, {"smiles": "Cc1onc(-c2ccccc2)c1COc1ccc(C(=O)N[C@@H]2CCC[C@H]2O)cn1", "note": "(single isomer, unassigned) [Example 213, N-((1R,2R)-2-Hydroxy-cyclopentyl)-6-(5-methyl-3-phenyl-isoxazol-4-ylmethoxy)-nicotinamide or N-((1S,2S)-2-hydroxy-cyclopentyl)-6-(5-methyl-3-phenyl-isoxazol-4-ylmethoxy)-nicotinamide]", "values": [{"measurement": "pKi", "result": 8.80}]}, {"smiles": "Cc1onc(-c2ccc(Cl)cc2)c1COc1ccc(C(=O)N[C@@H]2CCC[C@H]2O)cn1", "note": "(single isomer, unassigned) [Example 259, 6-[3-(4-Chloro-phenyl)-5-methyl-isoxazol-4-ylmethoxy]-N-((1R,2R)-2-hydroxy-cyclopentyl)-nicotinamide or 6-[3-(4-chloro-phenyl)-5-methyl-isoxazol-4-ylmethoxy]-N-((1S,2S)-2-hydroxy-cyclopentyl)-nicotinamide]", "values": [{"measurement": "pKi", "result": 9.15}]}, {"smiles": "Cc1onc(-c2ccc(Cl)cc2)c1COc1ccc(C(=O)N[C@H]2CCC[C@@H]2O)cn1", "note": "(single isomer, unassigned) [Example 260, 6-[3-(4-Chloro-phenyl)-5-methyl-isoxazol-4-ylmethoxy]-N-((1S,2S)-2-hydroxy-cyclopentyl)-nicotinamide or 6-[3-(4-chloro-phenyl)-5-methyl-isoxazol-4-ylmethoxy]-N-((1R,2R)-2-hydroxy-cyclopentyl)-nicotinamide]", "values": [{"measurement": "pKi", "result": 9.30}]}, {"smiles": "O=C(N[C@@H]1CCC[C@H]1O)c1ccc(OCc2conc2-c2ccc(F)cc2)nc1", "note": "(single isomer, unassigned) [Example 332, 6-[3-(4-Fluoro-phenyl)-isoxazol-4-ylmethoxy]-N-((1R,2R)-2-hydroxy-cyclopentyl)-nicotinamide or 6-[3-(4-fluoro-phenyl)-isoxazol-4-ylmethoxy]-N-((1S,2S)-2-hydroxy-cyclopentyl)-nicotinamide]", "values": [{"measurement": "pKi", "result": 7.65}]}, {"smiles": "O=C(N[C@@H]1CCC[C@H]1O)c1ccc(OCc2conc2-c2ccc(F)cc2)nc1", "note": "(single isomer, unassigned) [Example 341, 6-[3-(4-Fluoro-phenyl)-isoxazol-4-ylmethoxy]-N-((1R,2R)-2-hydroxy-cydopentyl)-nicotinamide or 6-[3-(4-fluoro-phenyl)-isoxazol-4-ylmethoxy]-N-((1S,2S)-2-hydroxy-cydopentyl)-nicotinamide]", "values": [{"measurement": "pKi", "result": 7.53}]}, {"smiles": "Cc1onc(-c2ccccc2)c1COc1ccccn1", "note": "[Example 1, 2-(5-Methyl-3-phenyl-isoxazol-4-ylmethoxy)-pyridine]", "values": [{"measurement": "pKi", "result": 7.44}]}, {"smiles": "Cc1cccc(OCc2c(-c3ccccc3)noc2C)n1", "note": "[Example 2, 2-Methyl-6-(5-methyl-3-phenyl-isoxazol-4-ylmethoxy)-pyridine]", "values": [{"measurement": "pKi", "result": 8.51}]}, {"smiles": "Cc1onc(-c2ccccc2)c1COc1ccc(Br)cn1", "note": "[Example 3, 5-Bromo-2-(5-methyl-3-phenyl-isoxazol-4-ylmethoxy)-pyridine]", "values": [{"measurement": "pKi", "result": 7.51}]}, {"smiles": "Cc1onc(-c2ccccc2)c1COc1ccc(C(F)(F)F)cn1", "note": "[Example 4, 2-(5-Methyl-3-phenyl-isoxazol-4-ylmethoxy)-5-trifluoromethylpyridine]", "values": [{"measurement": "pKi", "result": 7.22}]}, {"smiles": "Cc1onc(-c2ccccc2)c1COc1ccc(C#N)cn1", "note": "[Example 5, 6-(5-Methyl-3-phenyl-isoxazol-4-ylmethoxy)-nicotinonitrile]", "values": [{"measurement": "pKi", "result": 7.88}]}, {"smiles": "Cc1onc(-c2ccccc2)c1COc1ccc([N+](=O)[O-])cn1", "note": "[Example 6, 2-(5-Methyl-3-phenyl-isoxazol-4-ylmethoxy)-5-nitro-pyridine]", "values": [{"measurement": "pKi", "result": 7.65}]}, {"smiles": "COC(=O)c1ccc(OCc2c(-c3ccccc3)noc2C)nc1", "note": "[Example 7, 6-(5-Methyl-3-phenyl-isoxazol-4-ylmethoxy)-nicotinic acid methyl ester]", "values": [{"measurement": "pKi", "result": 7.85}]}, {"smiles": "CNC(=O)c1ccc(OCc2c(-c3ccccc3)noc2C)nc1", "note": "[Example 8, N-Methyl-6-(5-methyl-3-phenyl-isoxazol-4-ylmethoxy)-nicotinamide]", "values": [{"measurement": "pKi", "result": 8.37}]}, {"smiles": "CCNC(=O)c1ccc(OCc2c(-c3ccccc3)noc2C)nc1", "note": "[Example 9, N-Ethyl-6-(5-methyl-3-phenyl-isoxazol-4-ylmethoxy)-nicotinamide]", "values": [{"measurement": "pKi", "result": 8.54}]}, {"smiles": "Cc1onc(-c2ccccc2)c1COc1ccc(C(=O)NCCF)cn1", "note": "[Example 10, N-(2-Fluoro-ethyl)-6-(5-methyl-3-phenyl-isoxazol-4-ylmethoxy)-nicotinamide]", "values": [{"measurement": "pKi", "result": 8.36}]}, {"smiles": "Cc1onc(-c2ccccc2)c1COc1ccc(C(=O)NCC(F)F)cn1", "note": "[Example 11, N-(2,2-Difluoro-ethyl)-6-(5-methyl-3-phenyl-isoxazol-4-ylmethoxy)-nicotinamide]", "values": [{"measurement": "pKi", "result": 8.70}]}, {"smiles": "Cc1onc(-c2ccccc2)c1COc1ccc(C(=O)NCC(F)(F)F)cn1", "note": "[Example 12, 6-(5-Methyl-3-phenyl-isoxazol-4-ylmethoxy)-N-(2,2,2-trifluoro-ethyl)-nicotinamide]", "values": [{"measurement": "pKi", "result": 8.66}]}, {"smiles": "Cc1onc(-c2ccccc2)c1COc1ccc(C(=O)NCCO)cn1", "note": "[Example 13, N-(2-Hydroxy-ethyl)-6-(5-methyl-3-phenyl-isoxazol-4-ylmethoxy)-nicotinamide]", "values": [{"measurement": "pKi", "result": 8.59}]}, {"smiles": "COCCCNC(=O)c1ccc(OCc2c(-c3ccccc3)noc2C)nc1", "note": "[Example 15, N-(3-Methoxy-propyl)-6-(5-methyl-3-phenyl-isoxazol-4-ylmethoxy)-nicotinamide]", "values": [{"measurement": "pKi", "result": 8.28}]}, {"smiles": "Cc1onc(-c2ccccc2)c1COc1ccc(C(=O)NCC2CC2)cn1", "note": "[Example 16, N-Cyclopropylmethyl-6-(5-methyl-3-phenyl-isoxazol-4-ylmethoxy)-nicotinamide]", "values": [{"measurement": "pKi", "result": 8.41}]}, {"smiles": "CCC(CC)CNC(=O)c1ccc(OCc2c(-c3ccccc3)noc2C)nc1", "note": "[Example 17, N-(2-Ethyl-butyl)-6-(5-methyl-3-phenyl-isoxazol-4-ylmethoxy)-nicotinamide]", "values": [{"measurement": "pKi", "result": 8.11}]}, {"smiles": "Cc1onc(-c2ccccc2)c1COc1ccc(C(=O)NC[C@H]2CC(=O)NO2)cn1", "note": "[Example 18]", "values": [{"measurement": "pKi", "result": 7.71}]}, {"smiles": "Cc1onc(-c2ccccc2)c1COc1ccc(C(=O)NCc2nc(C3CC3)no2)cn1", "note": "[Example 19, N-(3-Cyclopropyl-[1,2,4]oxadiazol-5-ylmethyl)-6-(5-methyl-3-phenyl-isoxazol-4-ylmethoxy)-nicotinamide]", "values": [{"measurement": "pKi", "result": 7.88}]}, {"smiles": "Cc1onc(-c2ccccc2)c1COc1ccc(C(=O)NCc2cc(C3CC3)[nH]n2)cn1", "note": "[Example 20, N-(5-Cyclopropyl-1H-pyrazol-3-ylmethyl)-6-(5-methyl-3-phenyl-isoxazol-4-ylmethoxy)-nicotinamide]", "values": [{"measurement": "pKi", "result": 7.67}]}]}
